In US8927730B2, “Intramolecular hydrogen-bonded nitric oxide synthase inhibitors” (Northwestern University, priority 2010, dated 2015):

How the values were obtained:
rat nNOS = rat nNOS (Rattus norvegicus (Rat), UniProt P29476); assay: In vitro purified enzyme assay (hemoglobin capture), nNOS; format: biochemical; conditions: for Ki: calculated from directly measured IC50 (Cheng-Prusoff), rat nNOS; for IC50: purified enzyme assay
Protocol: (§1) The three NOS isoforms, rat nNOS, murine iNOS and bovine eNOS were recombinant enzymes overexpressed in E. coli and purified as reported in the literature. (See, e.g., example 51 of the aforementioned incorporated '790 patent and the references cited therein.) The hemoglobin capture was used to measure nitric oxide production. (See, Hevel, J. M. and Marietta, M. A. Nitric Oxide Synthase Assays. Methods Enzymol. 1994, 133, 250-258.) Briefly, the assay was run at 37° C. in 100 mM HEPES buffer (10% glycerol; pH 7.4) in the presence of 10 μM L-arginine. The following NOS cofactors were also included in the assay: 100 μM NADPH, 10 μM tetrahydrobiopterin, 1 mM CaCl2, 11.6 μg/mL calmodulin and 3.0 μM oxyhemoglobin. For iNOS, calmodulin and CaCl2 were omitted. The assay was run in a high throughput manner, using the Synergry 4 by BioTek, at the Northwestern University HighThroughput Analysis Facility. The assay was run in triplicate; 48 100 uL reactions were ran at once in a 96 well plate. The addition of hemoglobin and NOS were automated with a maximum of a 30 second delay before the reactions could be recorded at 401 nm. The absorbance increase at 401 nm is due to the formation of NO via the conversion of oxyhemoglobin to methemoglobin.
(§2) The IC50 values were obtained using non-linear regression in GraphPad Prism5 software.

bovine eNOS = bovine eNOS (Bos taurus (Bovine), UniProt P29473); assay: In vitro purified enzyme assay (hemoglobin capture), eNOS; format: biochemical; conditions: for Ki: calculated from directly measured IC50 (Cheng-Prusoff), bovine eNOS; for selectivity n/e: ratio of Ki (eNOS) to Ki (nNOS)
Protocol: as §1, §2

murine iNOS = murine iNOS (Mus musculus (Mouse), UniProt P29477); assay: In vitro purified enzyme assay (hemoglobin capture), iNOS; format: biochemical; conditions: for Ki: calculated from directly measured IC50 (Cheng-Prusoff), murine iNOS; for selectivity n/i: ratio of Ki (iNOS) to Ki (nNOS)
Protocol: as §1, §2

[1] = target: HEK293t cells stably transfected with rat nNOS (Rattus norvegicus (Rat), UniProt P29476); assay: nNOS cell-based assay (nitrite production, Griess reagent); conditions: for Relationship (fold higher in cells): cell-based IC50 versus in vitro IC50; for IC50: inhibition of nitric oxide production in HEK293t cells stably expressing nNOS
Protocol: HEK293t cells stably transfected with rat nNOS were cultured as previously described, and the nNOS inhibition assay was performed as previously reported (Fang, J.; Silverman, R. B. A cellular model for screening neuronal nitric oxide synthase inhibitors. Analytical Biochemistry 2009, 390, 74-78), with the following modifications: assays were performed in 96-well plates with a total volume of 100 μL, and 10 μM A23187 (Sigma Aldrich, St Louis, Mo., USA) in 50% DMSO was used in place of 5 μM. Nine concentrations of each inhibitor were tested, in at least triplicate wells. All inhibitors were assayed within the same experiment to assure consistencies in cell concentration and passage number. The entire assay was repeated at least twice for each inhibitor, and the IC50 values averaged. After 6 hours of activation (in the presence or absence of inhibitor, which was added 30 minutes before activation) 50 μL aliquots of the media were removed and nitrite production was quantified using Griess reagent. (See, Hevel, J. M.; White, K. A.; Marietta, M. Purification of the inducible murine macrophage nitric oxide synthase. Identification as a flavoprotein. J. Biol. Chem. 1991, 266, 22789-22791.)

[2] = animal test results; cited from earlier work
[3] = cited from earlier work

Ki (rat nNOS)	IC50 (rat nNOS)	Ki (bovine eNOS)	selectivity n/e (bovine eNOS)	Ki (murine iNOS)	selectivity n/i (murine iNOS)	Relationship (fold higher in cells) [1]	IC50 [1]	SMILES	BBB penetration [2]	pKa [3]
0.4 µM	3.4 µM	66 µM	169	36 µM	92	123 x	420 µM	Cc1cc(N)nc(C[C@H]2CNC[C@H]2OCCNCc2ccco2)c1 [Compound 3d, 6-(((3S,4S)-4-(2-(Furan-2-ylmethylamino)ethoxy)pyrrolidin-3-yl)methyl)-4-methylpyridin-2-amine]	–	–
–	1 µM	–	–	–	–	125 x	125 µM	Cc1cc(C[C@H]2CN(C(=O)OC(C)(C)C)C[C@H]2OCC=O)nc(N(C(=O)OC(C)(C)C)C(=O)OC(C)(C)C)c1 [Compound 2, reference compound]	do not penetrate the BBB	–
0.39 µM	3.5 µM	37 µM	93	57 µM	143	150 x	520 µM	Cc1cc(N)nc(C[C@H]2CNC[C@H]2OCCNCc2ccccc2O)c1 [Compound 3c, 2-((2-((3S,4S)-4-((6-Amino-4-methylpyridin-2-yl)methyl)pyrrolidin-3-yloxy)ethylamino)methyl)phenol]	–	–
–	0.45 µM	–	–	–	–	722 x	325 µM	C=CCO[C@@H]1CN(C(=O)OC(C)(C)C)C[C@@H]1Cc1cc(C)cc(N(C(=O)OC(C)(C)C)C(=O)OC(C)(C)C)n1 [Compound 1, reference compound]	do not penetrate the BBB	–
–	0.05 µM	–	–	–	–	500x	–	CNc1cc(N)nc(NC)c1.Cl [Aminopyridine, 2-amino-4,6-dimethylaminopyridine hydrochloride, reference compound]	–	~7
0.41 µM	3.6 µM	40 µM	98	44 µM	105	33 x	120 µM	Cc1cc(N)nc(C[C@H]2CNC[C@H]2OCCNCc2ccccc2F)c1 [Compound 3a, 6-(((3S,4S)-4-(2-(2-Fluorobenzylamino)ethoxy)pyrrolidin-3-yl)methyl)-4-methylpyridin-2-amine]	–	–
0.82 µM	7.1 µM	77 µM	93	114 µM	139	27 x	190 µM	COc1ccccc1CNCCO[C@@H]1CNC[C@@H]1Cc1cc(C)cc(N)n1 [Compound 3b, 6-(((3S,4S)-4-(2-(2-Methoxybenzylamino)ethoxy)pyrrolidin-3-yl)methyl)-4-methylpyridin-2-amine]	–	–
